Reference: patent US10570184B2, “GLP-1/glucagon receptor co-agonists for medical use” (Novo Nordisk A/S, priority 2014, dated 2020)
Starred links: 1 amine or outer side, 2 acyl side, 3 side chain; linkers in the order of their positions; H or OH if unused. Non-standard residues stand in square brackets, D forms with d. Residues, ends and D or L forms follow the SMILES beside them. Groups on a side chain read outwards from the residue. *: point of attachment. C18 diacid = O=C(O)CCCCCCCCCCCCCCCCC(=O)*; γGlu = O=C(O)[C@H](CCC(=O)[*:2])N[*:1]; Ac4c = NC1(C(=O)O)CCC1; AEEA = NCCOCCOCC(=O)O; Aib = CC(C)(N)C(=O)O

Molecular target: T1, human glucagon receptor (Homo sapiens, UniProt P47871)
T1 construct: expressed in transfected cells; host or cells: membranes of BHK cells, clone BHK hGCGR A3*25
T1 sequence (P47871 26-477): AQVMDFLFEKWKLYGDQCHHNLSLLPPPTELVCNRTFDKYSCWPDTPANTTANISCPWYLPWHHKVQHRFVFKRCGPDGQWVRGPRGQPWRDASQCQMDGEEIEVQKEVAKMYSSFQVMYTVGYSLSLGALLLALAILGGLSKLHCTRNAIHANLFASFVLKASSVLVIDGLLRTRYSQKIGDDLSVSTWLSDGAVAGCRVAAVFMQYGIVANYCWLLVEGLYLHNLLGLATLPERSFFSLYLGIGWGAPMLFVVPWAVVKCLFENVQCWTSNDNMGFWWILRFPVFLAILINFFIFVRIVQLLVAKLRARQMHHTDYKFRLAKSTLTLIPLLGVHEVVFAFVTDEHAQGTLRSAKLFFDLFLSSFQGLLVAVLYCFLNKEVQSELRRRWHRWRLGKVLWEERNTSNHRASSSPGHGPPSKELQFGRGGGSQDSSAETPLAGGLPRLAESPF
Test: Assay (I)(b) glucagon receptor activation, CRE luciferase reporter gene assay in BHK cells
Type: cell-based
Conditions: without presence of serum albumin; read-out: GlucagonR EC50 (pM), [Assay (I)(b)]
Description: The purpose of this example was to test the activity or potency, of the glucagon derivatives of the invention, in vitro. The in vitro potency is the measure of human GLP-1 receptor (GLP-1R) or glucagon receptor (glucagonR) activation, respectively, in a whole cell assay. In vitro potency was determined by measuring the response of human GLP-1 or glucagon receptor, respectively, in a reporter gene assay. The assay was performed in a stably transfected BHK cell line that expresses either the human GLP-1 receptor or the human glucagon receptor and contains the DNA for the cAMP response element (CRE) coupled to a promoter and the gene for firefly luciferase (CRE luciferase). […] When assay incubation was completed, the luciferase substrate (luciferin) was added and the enzyme converted luciferin to oxyluciferin and produces bioluminescence. The luminescence was measured as the readout for the assay. The cells used in this assay (clone pLJ6′-4-25) were BHK cells with BHK570 as a parent cell line expressing the CRE luciferase gene (clone BHK/KZ10-20-48) and were established by further transfection with the human glucagon receptor (clone pLJ6′ in pHZ-1 vector). The cells were cultured at 5% CO2 in DMEM medium with 10% FBS, 1×GlutaMAX, 1 mg/ml G418, 240 nM MTX (methotrexate) and 1% pen/strep (penicillin/streptomycin). They were aliquoted and stored in liquid nitrogen. Before each assay, an aliquot was taken up and washed three times in PBS before being suspended at the desired concentration in assay medium. For 96-well plates the suspension was made to give a final concentration of 5×10EE3 cells/well. The following chemicals were used in the assay: Pluronic F-68 (10%) (Gibco 2404), ovalbumin (Sigma A5503), DMEM w/o phenol red (Gibco 11880-028), 1 M Hepes (Gibco 15630), Glutamax 100× (Gibco 35050) and steadylite plus (PerkinElmer 6016757). Assay Medium consisted of DMEM w/o phenol red, 10 mM Hepes, 1× GlutaMAX, 2% Ovalbumin and 0.2% Pluronic F-68. Cell stocks were thawed in a 37° C. water bath. Cells were washed three times in PBS. The cells were counted and adjusted to 5×10EE3 cells/50 μl (1×10EE5 cells/ml) in Assay Medium. A 50 μl aliquot of cells was transferred to each well in the assay plate. Stocks of the test compounds and reference compounds were diluted to a concentration of […] in Assay Medium. Compounds were diluted 10-fold to give the following concentrations: 2×10EE-6 M, 2×10EE-7 M, 2×10EE-8 M; 2×10EE-9 M, 2×10EE-10 M, 2×10EE-11 M, 2×10EE-12 M and 2×10EE-13 M. For each compound a blank assay medium control was also included. A 50 μl aliquot of compound or blank was transferred from the dilution plate to the assay plate. Compounds were tested at the following final concentrations: 1×10EE-6 M, 1×10EE-7 M, 1×10EE-8 M; 1×10EE-9 M, 1×10EE-10 M, 1×10EE-11 M and 1×10EE-12 M and 1×10EE-13 M. The assay plate was incubated for 3 h in a 5% CO2 incubator at 37° C. The assay plate was removed from the incubator and allowed to stand at room temperature for 15 min. A 100 μl aliquot of steadylite plus reagent was added to each well of the assay plate (reagent is light sensitive). Each assay plate was covered with aluminum foil to protect it from light and shaken for 30 min at room temperature. Each assay plate was read in a Perkin Elmer TopCount NXT instrument. The data from the TopCount instrument was transferred to GraphPad Prism software. The software performed a non-linear regression (log(agonist) vs response-Variable slope (four parameter)). EC50 values were calculated by the software and reported in pM.

EC50	SMILES
66 pM	CC[C@H](C)[C@H](NC(=O)[C@H](CC(C)C)NC(=O)[C@H](Cc1c[nH]c2ccccc12)NC(=O)[C@H](CCC(N)=O)NC(=O)[C@@H](NC(=O)[C@H](Cc1ccccc1)NC(=O)[C@H](CC(=O)O)NC(=O)[C@H](CCCNC(=N)N)NC(=O)[C@H](C)NC(=O)[C@H](CCCNC(=N)N)NC(=O)[C@H](CCCNC(=N)N)NC(=O)[C@H](C)NC(=O)[C@H](CC(=O)O)NC(=O)[C@H](CC(C)C)NC(=O)[C@H](Cc1ccc(O)cc1)NC(=O)[C@H](CCCCN)NC(=O)[C@H](CO)NC(=O)[C@H](CC(C)C)NC(=O)[C@H](CC(=O)O)NC(=O)[C@H](CO)NC(=O)[C@@H](NC(=O)[C@H](Cc1ccccc1)NC(=O)[C@@H](NC(=O)CNC(=O)[C@H](CCC(N)=O)NC(=O)C(C)(C)NC(=O)[C@@H](N)Cc1c[nH]cn1)[C@@H](C)O)[C@@H](C)O)C(C)C)C(=O)N[C@@H](CO)C(=O)N[C@@H](CCCCNC(=O)CC[C@H](NC(=O)CC[C@H](NC(=O)COCCOCCNC(=O)COCCOCCNC(=O)CC[C@H](NC(=O)CCCCCCCCCCCCCCCCC(=O)O)C(=O)O)C(=O)O)C(=O)O)C(N)=O [Chem. 27, N^ε29-[(4S)-4-carboxy-4-[[(4S)-4-carboxy-4-[[2-[2-[2-[[2-[2-[2-[[(4S)-4-carboxy-4-(17-carboxyheptadecanoylamino)butanoyl]amino]ethoxy]ethoxy]acetyl]amino]ethoxy]ethoxy]acetyl]amino]butanoyl]amino]butanoyl]-[Aib2,Leu10,Ala16,Arg20,Ile27,Ser28,Lys29]-Glucagon amide] (H-H[Aib]QGTFTSDLSKYLDARRARDFVQWLISK([γGlu-γGlu-AEEA-AEEA-γGlu-C18 diacid])-NH2; N-terminus assumed)
12 pM	CC[C@H](C)[C@H](NC(=O)[C@H](CC(C)C)NC(=O)[C@H](Cc1c[nH]c2ccccc12)NC(=O)[C@H](CCC(N)=O)NC(=O)[C@@H](NC(=O)[C@H](Cc1ccccc1)NC(=O)[C@H](CCC(=O)O)NC(=O)[C@H](CCC(N)=O)NC(=O)[C@H](C)NC(=O)[C@H](CCCNC(=N)N)NC(=O)[C@H](CCCNC(=N)N)NC(=O)[C@H](CO)NC(=O)[C@H](CCC(=O)O)NC(=O)[C@H](CC(C)C)NC(=O)[C@H](Cc1ccc(O)cc1)NC(=O)[C@H](CCCCN)NC(=O)[C@H](CO)NC(=O)[C@H](CC(C)C)NC(=O)[C@H](CC(=O)O)NC(=O)[C@H](CO)NC(=O)[C@@H](NC(=O)[C@H](Cc1ccccc1)NC(=O)[C@@H](NC(=O)CNC(=O)[C@H](CCC(N)=O)NC(=O)C1(NC(=O)[C@@H](N)Cc2c[nH]cn2)CCC1)[C@@H](C)O)[C@@H](C)O)C(C)C)C(=O)N[C@@H](CCCCNC(=O)CC[C@H](NC(=O)COCCOCCNC(=O)COCCOCCNC(=O)CC[C@H](NC(=O)CC[C@H](NC(=O)CCCCCCCCCCCCCCCCC(=O)O)C(=O)O)C(=O)O)C(=O)O)C(=O)N[C@H](C(N)=O)[C@@H](C)O [Chem. 38, N^ε28-[(4S)-4-carboxy-4-[[2-[2-[2-[[2-[2-[2-[[(4S)-4-carboxy-4-[[(4S)-4-carboxy-4-(17-carboxyheptadecanoylamino)butanoyl]amino]butanoyl]amino]ethoxy]ethoxy]acetyl]amino]ethoxy]ethoxy]acetyl]amino]butanoyl]-[Acb2,Leu10,Glu15,Glu21,Ile27,Lys28]-Glucagon amide] (H-H[Ac4c]QGTFTSDLSKYLESRRAQEFVQWLIK([γGlu-AEEA-AEEA-γGlu-γGlu-C18 diacid])T-NH2; N-terminus assumed)
7 pM	CC[C@H](C)[C@H](NC(=O)[C@H](CC(C)C)NC(=O)[C@H](Cc1c[nH]c2ccccc12)NC(=O)[C@H](C)NC(=O)[C@@H](NC(=O)[C@H](Cc1ccccc1)NC(=O)[C@H](CC(=O)O)NC(=O)[C@H](CCCNC(=N)N)NC(=O)[C@H](C)NC(=O)[C@H](CCCNC(=N)N)NC(=O)[C@H](CCCNC(=N)N)NC(=O)[C@H](C)NC(=O)[C@H](CC(=O)O)NC(=O)[C@H](CC(C)C)NC(=O)[C@H](Cc1ccc(O)cc1)NC(=O)[C@H](CCCCN)NC(=O)[C@H](CO)NC(=O)[C@H](Cc1ccc(O)cc1)NC(=O)[C@H](CC(=O)O)NC(=O)[C@H](CO)NC(=O)[C@@H](NC(=O)[C@H](Cc1ccccc1)NC(=O)[C@@H](NC(=O)CNC(=O)[C@H](CCC(N)=O)NC(=O)C(C)(C)NC(=O)[C@@H](N)Cc1c[nH]cn1)[C@@H](C)O)[C@@H](C)O)C(C)C)C(=O)N[C@@H](CCCCNC(=O)CC[C@H](NC(=O)CC[C@H](NC(=O)COCCOCCNC(=O)COCCOCCNC(=O)CC[C@H](NC(=O)CCCCCCCCCCCCCCCCC(=O)O)C(=O)O)C(=O)O)C(=O)O)C(=O)N[C@H](C(N)=O)[C@@H](C)O [Chem. 32, N^ε28-[(4S)-4-carboxy-4-[[(4S)-4-carboxy-4-[[2-[2-[2-[[2-[2-[2-[[(4S)-4-carboxy-4-(17-carboxyheptadecanoylamino)butanoyl]amino]ethoxy]ethoxy]acetyl]amino]ethoxy]ethoxy]acetyl]amino]butanoyl]amino]butanoyl]-[Aib2,Ala16,Arg20,Ala24,Ile27,Lys28]-Glucagon amide] (H-H[Aib]QGTFTSDYSKYLDARRARDFVAWLIK([γGlu-γGlu-AEEA-AEEA-γGlu-C18 diacid])T-NH2)
